Experimental data published in patent publication US10597388B2, “Pyridazinone herbicides” (FMC CORPORATION, priority 2014, dated 2020).
Read-outs that look alike come from different tables or passages of the source.

Experiments:
Type in all cases: in vivo
[1] = tested on: barnyardgrass (Echinochloa crus-galli); experiment: Test A greenhouse herbicide test, pre- and postemergence; details: Echinochloa crus-galli, 240 h; for pest or weed control at 125 g/ha: 125 g ai/ha; for pest or weed control at 500 g/ha: 500 g ai/ha, 0 to 100 scale
How it was run: (§1)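 Visual injury ratings, 0 (no effect) to 100 (complete control), versus untreated plants after roughly 10 d in a greenhouse. Compounds, formulated in a surfactant-containing non-phytotoxic solvent, were sprayed on loam–sand soil after sowing (pre) or on one- to two-leaf plants 2–10 cm tall (post).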

corn (Zea mays) = experiment: as above; details: Zea mays, post-emergence, 240 h, Postemergence; for Corn plant response rating (crop injury, 0 = no effect, 100 = complete kill) at 125 g/ha: 125 g ai/ha, visual rating after approx. 10 d, 0 to 100 scale (0 no effect, 100 complete control); for plant injury at 500 g/ha: 500 g ai/ha, 0 to 100 scale, 0 is no effect, 100 is complete control, read-out: Corn plant response rating
How it was run: as §1

[2] = tested on: foxtail, giant (giant foxtail, Setaria faberii); experiment: as above; details: Setaria faberi, 240 h; for pest or weed control at 125 g/ha: 125 g ai/ha; for pest or weed control at 500 g/ha: 500 g ai/ha, 0 to 100 scale
How it was run: as §1

kochia (Kochia scoparia) = experiment: as above; details: Bassia scoparia, 240 h; for pest or weed control at 125 g/ha: 125 g ai/ha; for pest or weed control at 500 g/ha: 500 g ai/ha, 0 to 100 scale
How it was run: as §1

[3] = tested on: pigweed (Amaranthus retroflexus); experiment: as above; details: Amaranthus retroflexus, 240 h; for pest or weed control at 125 g/ha: 125 g ai/ha; for pest or weed control at 500 g/ha: 500 g ai/ha, 0 to 100 scale
How it was run: as §1

[4] = tested on: ragweed (common ragweed, Ambrosia elatior); experiment: as above; details: Ambrosia artemisiifolia, 240 h; for pest or weed control at 125 g/ha: 125 g ai/ha; for pest or weed control at 500 g/ha: 500 g ai/ha, 0 to 100 scale
How it was run: as §1

[5] = tested on: ryegrass, Italian (Italian ryegrass, Lolium multiflorum); experiment: as above; details: Lolium multiflorum, 240 h; for pest or weed control at 125 g/ha: 125 g ai/ha; for pest or weed control at 500 g/ha: 500 g ai/ha, 0 to 100 scale
How it was run: as §1

[6] = tested on: wheat (Triticum aestivum); experiment: as above; details: Triticum aestivum, post-emergence, 240 h, Postemergence; for plant injury at 125 g/ha: 125 g ai/ha, visual rating after approx. 10 d, 0 to 100 scale (0 no effect, 100 complete control), read-out: Plant response rating, Wheat; for plant injury at 500 g/ha: 500 g ai/ha, 0 to 100 scale, 0 is no effect, 100 is complete control, read-out: Wheat plant response rating
How it was run: as §1

[7] = tested on: lambsquarters (Chenopodium album); experiment: Test C greenhouse herbicide test, pre- and postemergence
How it was run: (§2)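 Greenhouse pots; pre-em on seeded loam:sand blend, post-em on 2–18 cm plants (1–4 leaf) in sphagnum peat/vermiculite medium. Formulation: non-phytotoxic solvent + surfactant. Read-out: visual % control (0–100) vs controls at 13–15 d.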

[8] = tested on: ryegrass, Italian (Italian ryegrass, Lolium multiflorum); experiment: as above
How it was run: as §2

[9] = post-emergence, Postemergence, visual rating after approx. 10 d, 0 to 100 scale (0 no effect, 100 complete control), read-out: Plant response rating, Barnyardgrass
[10] = post-emergence, Postemergence, 0 is no effect, 100 is complete control, read-out: Barnyardgrass plant response rating
[11] = pre-emergence, Preemergence, 0 to 100 scale where 0 is no effect and 100 is complete control, read-out: Barnyardgrass plant response rating
[12] = pre-emergence, Preemergence, 0 no effect, 100 complete control, read-out: Plant response rating, Barnyardgrass
[13] = post-emergence, Postemergence, visual rating after approx. 10 d, 0 to 100 scale (0 no effect, 100 complete control), read-out: Plant response rating, Foxtail, Giant
[14] = post-emergence, Postemergence, 0 is no effect, 100 is complete control, read-out: Foxtail, Giant plant response rating
[15] = pre-emergence, Preemergence, 0 to 100 scale where 0 is no effect and 100 is complete control, read-out: Foxtail, Giant plant response rating
[16] = pre-emergence, Preemergence, 0 no effect, 100 complete control, read-out: Plant response rating, Foxtail, Giant
[17] = post-emergence, Postemergence, visual rating after approx. 10 d, 0 to 100 scale (0 no effect, 100 complete control), read-out: Plant response rating, Kochia
[18] = post-emergence, Postemergence, 0 is no effect, 100 is complete control, read-out: Kochia plant response rating
[19] = pre-emergence, Preemergence, 0 to 100 scale where 0 is no effect and 100 is complete control, read-out: Kochia plant response rating
[20] = pre-emergence, Preemergence, 0 no effect, 100 complete control, read-out: Plant response rating, Kochia
[21] = post-emergence, Postemergence, visual rating after approx. 10 d, 0 to 100 scale (0 no effect, 100 complete control), read-out: Plant response rating, Pigweed
[22] = post-emergence, Postemergence, 0 is no effect, 100 is complete control, read-out: Pigweed plant response rating
[23] = pre-emergence, Preemergence, 0 to 100 scale where 0 is no effect and 100 is complete control, read-out: Pigweed plant response rating
[24] = pre-emergence, Preemergence, 0 no effect, 100 complete control, read-out: Plant response rating, Pigweed
[25] = post-emergence, Postemergence, visual rating after approx. 10 d, 0 to 100 scale (0 no effect, 100 complete control), read-out: Plant response rating, Ragweed
[26] = post-emergence, Postemergence, 0 is no effect, 100 is complete control, read-out: Ragweed plant response rating
[27] = pre-emergence, Preemergence, 0 to 100 scale where 0 is no effect and 100 is complete control, read-out: Ragweed plant response rating
[28] = pre-emergence, Preemergence, 0 no effect, 100 complete control, read-out: Plant response rating, Ragweed
[29] = post-emergence, Postemergence, visual rating after approx. 10 d, 0 to 100 scale (0 no effect, 100 complete control), read-out: Plant response rating, Ryegrass, Italian
[30] = post-emergence, Postemergence, 0 is no effect, 100 is complete control, read-out: Ryegrass, Italian plant response rating
[31] = pre-emergence, Preemergence, 0 to 100 scale where 0 is no effect and 100 is complete control, read-out: Ryegrass, Italian plant response rating
[32] = Postemergence, 31 g ai/ha, 0 to 100 scale (0 no effect, 100 complete control)
[33] = Postemergence, 125 g ai/ha, scale 0 to 100, 0 is no effect, 100 is complete control
[34] = Postemergence, 250 g ai/ha, scale 0 to 100, 0 no effect, 100 complete control, 13 to 15 d
[35] = postemergence, 62 g ai/ha, scale 0 to 100, 0 no effect, 100 complete control

| SMILES | pest or weed control at 125 g/ha [1, 9] [%] | pest or weed control at 500 g/ha [1, 10] [%] | pest or weed control at 125 g/ha [1, 11] [%] | pest or weed control at 500 g/ha [1, 12] [%] | Corn plant response rating (crop injury, 0 = no effect, 100 = complete kill) at 125 g/ha (corn (Zea mays)) [%] | plant injury at 500 g/ha (corn (Zea mays)) [%] | pest or weed control at 125 g/ha [2, 13] [%] | pest or weed control at 500 g/ha [2, 14] [%] | pest or weed control at 125 g/ha [2, 15] [%] | pest or weed control at 500 g/ha [2, 16] [%] | pest or weed control at 125 g/ha (kochia (Kochia scoparia); [17]) [%] | pest or weed control at 500 g/ha (kochia (Kochia scoparia); [18]) [%] | pest or weed control at 125 g/ha (kochia (Kochia scoparia); [19]) [%] | pest or weed control at 500 g/ha (kochia (Kochia scoparia); [20]) [%] | pest or weed control at 125 g/ha [3, 21] [%] | pest or weed control at 500 g/ha [3, 22] [%] | pest or weed control at 125 g/ha [3, 23] [%] | pest or weed control at 500 g/ha [3, 24] [%] | pest or weed control at 125 g/ha [4, 25] [%] | pest or weed control at 500 g/ha [4, 26] [%] | further results |
| --- | --- | --- | --- | --- | --- | --- | --- | --- | --- | --- | --- | --- | --- | --- | --- | --- | --- | --- | --- | --- | --- |
| CC(=O)Oc1c(C)nn(C)c(=O)c1-c1c(C)oc2ccc(C)cc12 [Compound 14, 5-(acetyloxy)-4-(2,5-dimethyl-3-benzofuranyl)-2,6-dimethyl-3(2H)-pyridazinone] | 10 | 70 | 0 | 40 | 0 | 20 | 10 | 70 | 0 | 10 | 80 | 90 | 10 | 50 | 60 | 80 | 70 | 90 | 70 | 90 | pest or weed control at 125 g/ha [4, 27]: 0%; pest or weed control at 500 g/ha [4, 28]: 30%; pest or weed control at 125 g/ha [5, 29]: 60%; pest or weed control at 500 g/ha [5, 30]: 80%; pest or weed control at 125 g/ha [5, 31]: 30%; plant injury at 125 g/ha [6]: 0%; plant injury at 500 g/ha [6]: 0%; Lambsquarters plant response rating [7, 32]: 80; Plant response rating, Lambsquarters [7, 33]: 80; Plant response rating, Lambsquarters [7, 34]: 90; Lambsquarters plant response rating [7, 35]: 80; Ryegrass, Italian plant response rating [8, 32]: 40; Plant response rating, Ryegrass, Italian [8, 33]: 65; Plant response rating, Ryegrass, Italian [8, 34]: 85; Ryegrass, Italian plant response rating [8, 35]: 60 |
| CC(=O)Oc1c(C)nn(C)c(=O)c1-c1c(C)oc2c(C)cc(C)cc12 [Compound 16, 5-(acetyloxy)-2,6-dimethyl-4-(2,5,7-trimethyl-3-benzofuranyl)-3(2H)-pyridazinone] | 20 | 90 | 10 | 70 | 0 | 0 | 20 | 80 | 0 | 30 | 50 | 60 | 0 | 30 | 30 | 40 | 0 | 70 | 30 | 70 | pest or weed control at 125 g/ha [4, 27]: 0%; pest or weed control at 500 g/ha [4, 28]: 0%; pest or weed control at 125 g/ha [5, 29]: 50%; pest or weed control at 500 g/ha [5, 30]: 80%; pest or weed control at 125 g/ha [5, 31]: 30%; pest or weed control at 500 g/ha ([5]; pre-emergence, Preemergence, 0 no effect, 100 complete control, read-out: Plant response rating, Ryegrass, Italian): 80%; plant injury at 125 g/ha [6]: 0%; plant injury at 500 g/ha [6]: 0%; Lambsquarters plant response rating [7, 32]: 10; Plant response rating, Lambsquarters [7, 33]: 40; Plant response rating, Lambsquarters [7, 34]: 20; Lambsquarters plant response rating [7, 35]: 60; Ryegrass, Italian plant response rating [8, 32]: 10; Plant response rating, Ryegrass, Italian [8, 33]: 60; Plant response rating, Ryegrass, Italian [8, 34]: 70; Ryegrass, Italian plant response rating [8, 35]: 50 |
